This note sets out measurements from patent US6906095B2, “Indolylalkylidenehydrazine-carboximidamide derivatives as 5-hydroxytryptamine-6 ligands” (Wyeth, priority 2002, dated 2005).

The target of this assay is T1, human cloned 5-HT6 receptors (Homo sapiens, UniProt P50406).
T1 construct: expressed in transfected cells; host or cells: Hela cells
Description: 5-HT6 binding affinity, [3H]-LSD displacement in membranes of Hela cells. The note with it: for inhibition at 0.1 µM: test compound dose 100 nM; for inhibition at 0.01 µM: test compound dose 10 nM. The method, then: The affinity of test compounds for the serotonin 5-HT6 receptor is evaluated in the following manner. Cultured Hela cells expressing human cloned 5-HT6 receptors are harvested and centrifuged at low speed (1,000×g) for 10.0 min to remove the culture media. The harvested cells are suspended in half volume of fresh physiological phosphate buffered saline solution and recentrifuged at the same speed. This operation is repeated. The collected cells are then homogenized in ten volumes of 50 mM Tris.HCl (pH 7.4) and 0.5 mM EDTA. The homogenate is centrifuged at 40,000×g for 30.0 min and the precipitate is collected. The obtained pellet is resuspended in 10 volumes of Tris.HCl buffer and recentrifuged at the same speed. The final pellet is suspended in a small volume of Tris.HCl buffer and the tissue protein content is determined in aliquots of 10-25 μl volumes. Bovine Serum Albumin is used as the standard in the protein determination according to the method described in Lowry et al., J. Biol. Chem., 193:265 (1951). The volume of the suspended cell membranes is adjusted to give a tissue protein concentration of 1.0 mg/ml of suspension. The prepared membrane suspension (10 times concentrated) is aliquoted in 1.0 ml volumes and stored at −70° C. until used in subsequent binding experiments.
The reaction is allowed to proceed in the dark for 120 min at room temperature, at which time, the bound ligand-receptor complex is filtered off on a 96 well unifilter with a Packard Filtermate® 196 Harvester. The bound complex caught on the filter disk is allowed to air dry and the radioactivity is measured in a Packard TopCount® equipped with six photomultiplier detectors, after the addition of 40.0 μl Microscint®-20 scintillant to each shallow well. The unifilter plate is heat-sealed and counted in a PackardTopCount® with a tritium efficiency of 31.0%.
Specific binding to the 5-HT6 receptor is defined as the total radioactivity bound less the amount bound in the presence of 10.0 μM unlabeled methiothepin. Binding in the presence of varying concentrations of test compound is expressed as a percentage of specific binding in the absence of test compound. The results are plotted as logit % bound versus log concentration of test compound. Nonlinear regression analysis of data points with a computer assisted program Prism® yields both the IC50 and the Ki values of test compounds with 95% confidence limits.
The amount of displacement by the test compound is given in percent (%) inhibition and is derived from the following equation: [formula] where B0 is the amount of CPM bound in the presence of the testing agent. NSB represents the CPM bound in the presence of a saturating concentration of a displacer and TB represents the total amount of CPM bound at zero (0) concentration of test compound.
Alternatively, a linear regression line of decline of data points is plotted, from which the IC50 value can be read off and the Ki value determined by solving the following equation: [formula] where L is the concentration of the radioactive ligand used and KD is the dissociation constant of the ligand for the receptor, both expressed in nM.

Setting [1] is: test compound dose 1000 nM, [3H]-LSD 3.0 nM, read-out: % Inhibition.

Molecules are shown by their SMILES. Where two headings read alike, the source gives them in different places.

T1 sequence (P50406 whole entry): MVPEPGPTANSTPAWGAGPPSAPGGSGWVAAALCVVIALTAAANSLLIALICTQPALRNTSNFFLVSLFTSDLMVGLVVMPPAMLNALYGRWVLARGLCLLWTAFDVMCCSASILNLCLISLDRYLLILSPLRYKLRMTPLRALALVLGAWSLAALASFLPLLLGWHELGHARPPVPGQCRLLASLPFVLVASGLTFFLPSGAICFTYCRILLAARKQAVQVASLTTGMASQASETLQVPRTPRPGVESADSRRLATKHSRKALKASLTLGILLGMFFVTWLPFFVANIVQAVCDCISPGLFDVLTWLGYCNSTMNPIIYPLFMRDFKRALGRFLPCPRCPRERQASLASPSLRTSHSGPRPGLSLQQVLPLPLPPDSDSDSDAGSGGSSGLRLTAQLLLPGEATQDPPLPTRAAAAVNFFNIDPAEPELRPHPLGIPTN

For orientation: inhibition means the share of the control response that was lost under treatment. Consider `Cc1ccc(S(=O)(=O)n2cc(C=NNC3=NCCCN3)c3ccccc32)cc1` [Example 1, 1-[(4-methylphenyl)sulfonyl]-1H-indole-3-carboxaldehyde 1,4,5,6-tetrahydropyrimidin-2-ylhydrazone], for which, under setting [1], the inhibition at 1 µM was found to be 56%.
In the case of `N=C(N)NN=C(c1cn(S(=O)(=O)c2ccccc2)c2ccccc12)C1CCCCC1` [Example 2, 2-{Cyclohexyl[1-(phenylsulfonyl)-1H-indol-3-yl]methylidene}-hydrazinecarboximidamide], 1 µM produced 69.2% inhibition.
In general, % Inhibition refers to the percentage by which the read-out fell short of the control. The low end stands for a weak effect, the high end for a strong effect. On to `Cc1ccc(S(=O)(=O)n2cc(C=NNC(=N)N)c3ccccc32)cc1` [Example 3, 2-({1-[(4-methylphenyl)sulfonyl]-1H-indol-3-l}methylidene)hydrazinecarboximidamide], for which, for the setting “test compound dose 1000 nM, [3H]-LSD 3.0 nM”, the “% Inhibition” value was 71.0%.
For the compound `Cc1ccc(S(=O)(=O)n2cc(C=NN(C)C3=NCCN3)c3ccccc32)cc1` [Example 4, 1-[(4-methylphenyl)sulfonyl]-1H-indole-3-carbaldehyde 4,5-dihydro-1H-imidazol-2-yl(methyl)hydrazone], the inhibition at 1 µM under setting [1] was 71.9%.
Turning to `CC(C)C(=NNC(=N)N)c1cn(S(=O)(=O)c2ccccc2)c2ccccc12` [Example 5, 2-{2-methyl-1-[1-(phenylsulfonyl)-1H-indol-3-yl]propylidene}hydrazinecarboximidamide], the inhibition at 1 µM under setting [1] worked out at 91.5%.
As a reminder, the Ki is a measure of affinity in units of concentration, obtained from inhibition or displacement. Consider `N=C(N)NN=C(Cc1ccccc1)c1cn(S(=O)(=O)c2ccccc2)c2ccccc12` [Example 6, 2-{2-phenyl-1-[1-(phenylsulfonyl)-1H-indol-3-yl]ethylidene}hydrazinecarboximidamide], for which the Ki was 11 nM. In addition, the inhibition at 1 µM under setting [1] came to 97.8%.
`CC(C)CC(=NNC(=N)N)c1cn(S(=O)(=O)c2ccccc2)c2ccccc12` [Example 7, 2-{3-methyl-1-[1-(phenylsulfonyl)-1H-indol-3-yl]butylidene}hydrazinecarboximidamide] registered a Ki of 12 nM. The inhibition at 1 µM under setting [1] is 98.5%.
Consider `N=C(N)N/N=C(\C=C\c1ccccc1Cl)c1cn(S(=O)(=O)c2ccccc2)c2ccccc12` [Example 8, 2-{(E,2E)-3-(2-chlorophenyl)-1-[1-(phenylsulfonyl)-1H-indol-3-yl]prop-2-enylidene}-hydrazinecarboximidamide], for which the inhibition at 1 µM under setting [1] came out at 95.2%.
Compound `CC(=NNC(=N)N)c1cn(S(=O)(=O)c2ccccc2)c2ccccc12` [Example 9, 2-{1-[1-(phenylsulfonyl)-1H-indol-3-yl]ethylidene}hydrazinecarboximidamide] registered a Ki of 7 nM. Besides, the inhibition at 1 µM under setting [1] was determined as 99.5%.
Turning to `CC(=NNC(=N)N)c1c(-c2ccc(F)c(Cl)c2)n(S(=O)(=O)c2ccccc2)c2ccccc12` [Example 12, 2-{1-[2-(3-chloro-4-fluorophenyl)-1-(phenylsulfonyl)-1H-indol-3-yl]ethylidene}hydrazinecarboximidamide], the inhibition at 1 µM under setting [1] came to 75.6%.
Turning to `CC(=NNC(=N)N)c1c(-c2ccc(F)c(F)c2)n(S(=O)(=O)c2ccccc2)c2ccccc12` [Example 13, 2-{1-[2-(3,4-difluorophenyl)-1-(phenylsulfonyl)-1H-indol-3-yl]ethylidene}hydrazinecarboximidamide], under setting [1], the inhibition at 1 µM is 86%.
In the case of `CC(=NNC(=N)N)c1c(-c2ccc3ccccc3c2)n(S(=O)(=O)c2ccccc2)c2ccccc12` [Example 14, 2-{1-[2-(2-naphthyl)-1-(phenylsulfonyl)-1H-indol-3-yl]ethylidene}hydrazinecarboximidamide], under setting [1], the inhibition at 1 µM worked out at 85.4%.
Turning to `CC(=NNC(=N)N)c1c(-c2ccccc2)n(S(=O)(=O)c2ccccc2)c2ccccc12` [Example 15, 2-{1-[2-phenyl-1-(phenylsulfonyl)-1H-indol-3-yl]ethylidene}hydrazinecarboximidamide], for the setting “[3H]-LSD 3.0 nM”, the inhibition at 0.1 µM was determined as 67.1%.
`CC(=NNC(=N)N)c1cn(S(=O)(=O)c2ccccc2)c2ccc(C#N)cc12` [Example 16, 2-{1-[5-cyano-1-(phenylsulfonyl)-1H-indol-3-yl]ethylidene}hydrazinecarboximidamide]: at 0.01 µM the inhibition ([3H]-LSD 3.0 nM) was 40.6%.
`CC(=NNC(=N)N)c1cn(S(=O)(=O)c2ccccc2)c2ccc(I)cc12` [Example 17, 2-{1-[5-iodo-1-(phenylsulfonyl)-1H-indol-3-yl]ethylidene}hydrazinecarboximidamide]: the inhibition at 0.01 µM ([3H]-LSD 3.0 nM) was determined as 52%.
Take `CC(=NNC(=N)N)c1cn(S(=O)(=O)c2ccccc2)c2ccc([N+](=O)[O-])cc12` [Example 18, 2-{1-[5-nitro-1-(phenylsulfonyl)-1H-indol-3-yl]ethylidene}hydrazinecarboximidamide]: for the setting “[3H]-LSD 3.0 nM”, the inhibition at 0.1 µM turned out to be 77.9%.
Compound `CC(=NNC(=N)N)c1cn(S(=O)(=O)c2ccccc2)c2ccc(F)cc12` [Example 19, 2-{1-[5-fluoro-1-(phenylsulfonyl)-1H-indol-3-yl]ethylidene}hydrazinecarboximidamide] had an inhibition at 0.1 µM ([3H]-LSD 3.0 nM) of 82.4%.
In the case of `COc1ccc2c(c1)c(C=NNC(=N)N)cn2S(=O)(=O)c1ccccc1` [Example 20, 2-{[5-methoxy-1-(phenylsulfonyl)-1H-indol-3-yl]methylidene}hydrazinecarboximidamide], the inhibition at 0.1 µM ([3H]-LSD 3.0 nM) was 76.3%.
On to `N=C(N)NN=Cc1cn(S(=O)(=O)c2ccccc2)c2ccc(OCc3ccccc3)cc12` [Example 21, 2-{[5-(benzyloxy)-1-(phenylsulfonyl)-1H-indol-3-yl]methylidene}hydrazinecarboximidamide], for which the inhibition at 1 µM under setting [1] is 57.4%.
In the case of `CC(=NNC(=N)N)c1cn(S(=O)(=O)c2sc(N)nc2C)c2ccccc12` [Example 22, 2-(1-{1-[(2-amino-4-methyl-1,3-thiazol-5-yl)sulfonyl]-1H-indol-3-yl}ethylidene)hydrazinecarboximidamide], affinity was put at a Ki of 8 nM. The compound also returned an inhibition at 0.1 µM ([3H]-LSD 3.0 nM) of 90.5%.
The like results for `CC(=NNC(=N)N)c1cn(S(=O)(=O)c2ccc(N)cc2)c2ccccc12` [Example 23, 2-(1-{1-[(4-aminophenyl)sulfonyl]-1H-indol-3-yl}ethylidene)hydrazinecarboximidamide] were, in that order, 2 nM and 92.9%.
`CC(=NNC(=N)N)c1cn(S(=O)(=O)c2cccc3nsnc23)c2ccccc12` [Example 24, 2-{1-[1-(2,1,3-benzothiadiazol-4-ylsulfonyl)-1H-indol-3-yl]ethylidene}hydrazinecarboximidamide]: 0.1 µM produced 62.9% inhibition ([3H]-LSD 3.0 nM).
`CC(=NNC(=N)N)c1cn(S(=O)(=O)c2cccc3nonc23)c2ccccc12` [Example 25] gave an inhibition constant Ki of 15 nM. This compound also gave an inhibition at 0.1 µM ([3H]-LSD 3.0 nM) of 79.6%.
In turn, `CC(=NNC(=N)N)c1cn(S(=O)(=O)c2ccc(-c3ccccc3)cc2)c2ccccc12` [Example 26, 2-{1-[1-([1,1′-biphenyl]-4-ylsulfonyl)-1H-indol-3-yl]ethylidene}hydrazinecarboximidamide] came in with an inhibition at 0.1 µM ([3H]-LSD 3.0 nM) of 39.7%.
For the compound `CC(=NNC(=N)N)c1cn(S(=O)(=O)c2c(Cl)sc(Cl)c2Br)c2ccccc12` [Example 27, 2-(1-{1-[(4-bromo-2,5-dichlorothien-3-yl)sulfonyl]-1H-indol-3-yl}ethylidene)hydrazinecarboximidamide], the inhibition at 0.1 µM ([3H]-LSD 3.0 nM) was found to be 33.8%.
Take `CC(=NNC(=N)N)c1cn(S(=O)(=O)c2cc(Br)c(Cl)s2)c2ccccc12` [Example 28, 2-(1-{1-[(4-bromo-5-chlorothien-2-yl)sulfonyl]-1H-indol-3-yl}ethylidene)hydrazinecarboximidamide]: the inhibition at 0.1 µM ([3H]-LSD 3.0 nM) was 58.3%.
For the compound `CC(=NNC(=N)N)c1cn(S(=O)(=O)c2sc(Cl)cc2Br)c2ccccc12` [Example 29, 2-(1-{1-[(3-bromo-5-chlorothien-2-yl)sulfonyl]-1H-indol-3-yl}ethylidene)hydrazinecarboximidamide], at 0.1 µM the inhibition ([3H]-LSD 3.0 nM) was 60.3%.
Regarding `CC(=NNC(=N)N)c1cn(S(=O)(=O)c2ccc(Br)cc2)c2ccccc12` [Example 30, 2-(1-{1-[(4-bromophenyl)sulfonyl]-1H-indol-3-yl}ethylidene)hydrazinecarboximidamide], where the note is “[3H]-LSD 3.0 nM”, the inhibition at 0.1 µM came out at 65%.
